The structures appear in SMILES notation.

The subject of the assay is antitumor/anti-DOTA IgG-scFv. Description: Affinity measurement of DOTA-PEG6 Biotin by surface plasmon resonance (Biacore). The conditions noted are these: SA chip coated with DOTA-PEG6 Biotin, 1:1 binding model. From the text: Affinity measurement of […] by Surface Plasmon Resonance (Biacore). sBiacore T-100 Biosensor, streptavidin (SA) sensor chip, and related reagents were purchased from GE Healthcare. The SA chip coated with […] and then flowed over with an antitumor/anti-DOTA IgG-scFv. The KDs were generated from a sensorgram data series consisting of 6 concentrations of anti-tumor/anti-DOTA IgG-scFv, by fitting to a 1:1 binding model using the Biacore T-100 evaluation software.
(In SPR one partner is held on a chip, and binding of the other changes the refractive index at the surface.)

In the case of `O=C(O)CN1CCN(CC(=O)O)CCN(CC(=O)O)C(Cc2ccc(NC(=S)NCCOCCOCCOCCOCCOCCOCCNC(=O)CCCCC3SC[C@@H]4NC(=O)N[C@H]34)cc2)CN(CC(=O)O)CC1` (stereo partly shown) [DOTA-PEG6 Biotin], the t½ is 3.811 h. For the same compound, under “6 concentrations of IgG-scFv”, the Kd was 0.0686 nM, the ka was 736000 M⁻¹ s⁻¹ and the kd is 5.05e-05 s⁻¹.

In general, t½ refers to the time in which the quantity being followed falls by half. Higher therefore signals slow loss. What is called Kd is the concentration at which binding is half-saturated. Low values mean higher affinity, high ones lower affinity.

The values are drawn from US20230346988A1, “SYSTEMS FOR IN VIVO MONITORING OF IMMUNE CELLS IN PATIENTS UNDERGOING CELLULAR IMMUNOTHERAPY” (Memorial Sloan Kettering Cancer Center, priority 2020, published 2023).
